Values quoted from earlier work, collected in US6551555B2, “Apparatus with a chemical indicator for indicating exposure to an oxidative sterilant or disinfectant” (Ethicon, Inc., priority 1997, dated 2003).

Conditions: Sigma-Aldrich catalog number 229288

CN(C)c1ccc(C(=C2C=CC(=[N+](C)C)C=C2)c2ccc(N(C)C)cc2)cc1 [crystal violet]
toxicity hazards: toxic and may cause cancer, heritable genetic damage and irritate the eyes, respiratory system and skin
